Assays:
MCF-10A ErbB2 cells = test: Western blot of BZX-treated human breast cancer cells (O-GlcNAcylation); assay type: cell-based; settings: 200 μM
Procedure: Western Blot of BZX-Treated Human Breast Cancer Cells MCF-10A ErbB2 cells were obtained from Joan Brugge's lab at Harvard Medical School (Boston, Mass.). Cells were maintained in DMEM/F12 (Invitrogen) supplemented with 5% horse serum (Invitrogen), 20 ng/ml EGF (Peprotech), 10 μg/ml insulin (Sigma), 100 ng/ml cholera toxin (Sigma), […] hydrocortisone (Sigma), 50 U/ml penicillin and 50 μg/ml streptomycin (Invitrogen). When cells were grown to 70% confluence, old growth medium was removed. Cells were rinsed twice with PBS, and were grown in glucose starvation medium (DMEM-no glucose; Invitrogen) supplemented with 1% horse serum, 50 U/ml penicillin and 50 μg/ml streptomycin) in the absence (control) and presence of (2) (200 μM) for 4 h. PUGNAc (100 μM, Sigma) and glucosamine (2 mM, EMD) were added to the cells and incubated for another 3 h. Cell lysates from 2−5×10^6 cells were prepared in M-PER mammalian protein extraction reagent (Pierce) supplemented with protease inhibitor cocktail (Sigma). Lysates were cleared by centrifugation at 16,000 g for 10 min at 4° C. and analyzed by SDS-PAGE. Proteins were transferred to a nitrocellulose membrane (Bio-Rad Laboratories) and O-GlcNAcylation was detected with anti-O-GlcNAc antibody (CTD 110.6, Sigma, used at 1:5,000) and a secondary anti-mouse IgM-HRP antibody (Pierce, used at 1:20,000). Western Blot of BZX Inhibitor Treated Cell Lysates

EEF2K = molecular target: T1, EEF2K (Homo sapiens, UniProt O00418); test: Kinase profiling, Invitrogen Z'-LYTE; assay type: biochemical; settings: Table 2
T1 construct: purchased Invitrogen
Procedure: (§1) Kinase profiling was conducted using Invitrogen Z'-LYTE screening protocol and assay conditions found at www.invitrogen.com. Compound (2) inhibited PLK1 completely at 5 μM.

FER = molecular target: T2, FER (Homo sapiens, UniProt P16591); test: Kinase profiling, Invitrogen Z'-LYTE; assay type: biochemical; settings: Table 2
T2 construct: purchased Invitrogen
Procedure: as §1

FGR = molecular target: T3, FGR (Homo sapiens, UniProt P09769); test: Kinase profiling, Invitrogen Z'-LYTE; assay type: biochemical; settings: Table 2
T3 construct: purchased Invitrogen
Procedure: as §1

MARK2 = molecular target: T4, MARK2 (Homo sapiens, UniProt Q7KZI7); test: Kinase profiling, Invitrogen Z'-LYTE; assay type: biochemical; settings: Table 2
T4 construct: purchased Invitrogen
Procedure: as §1

PHKG2 = molecular target: T5, PHKG2 (Homo sapiens, UniProt P15735); test: Kinase profiling, Invitrogen Z'-LYTE; assay type: biochemical; settings: Table 2
T5 construct: purchased Invitrogen
T5 sequence (P15735 1-406): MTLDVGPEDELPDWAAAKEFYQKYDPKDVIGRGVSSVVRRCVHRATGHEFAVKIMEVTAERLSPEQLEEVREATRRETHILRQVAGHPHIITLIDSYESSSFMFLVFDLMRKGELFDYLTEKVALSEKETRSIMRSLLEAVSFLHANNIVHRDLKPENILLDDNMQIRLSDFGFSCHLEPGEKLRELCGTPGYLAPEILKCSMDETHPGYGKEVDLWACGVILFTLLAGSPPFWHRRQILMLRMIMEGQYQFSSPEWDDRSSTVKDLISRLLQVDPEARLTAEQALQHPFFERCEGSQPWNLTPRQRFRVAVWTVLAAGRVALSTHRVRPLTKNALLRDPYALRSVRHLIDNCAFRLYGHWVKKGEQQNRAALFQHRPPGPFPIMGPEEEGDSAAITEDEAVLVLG
Procedure: as §1

RET = molecular target: T6, RET (Homo sapiens, UniProt P07949); test: Kinase profiling, Invitrogen Z'-LYTE; assay type: biochemical; settings: Table 2
T6 construct: purchased Invitrogen
Procedure: as §1

RPS6KA2 (RSK3) = molecular target: T7, RPS6KA2 (RSK3) (Homo sapiens, UniProt Q15349); test: Kinase profiling, Invitrogen Z'-LYTE; assay type: biochemical; settings: Table 2
T7 construct: purchased Invitrogen
Procedure: as §1

T6 sequence (P07949 29-1114): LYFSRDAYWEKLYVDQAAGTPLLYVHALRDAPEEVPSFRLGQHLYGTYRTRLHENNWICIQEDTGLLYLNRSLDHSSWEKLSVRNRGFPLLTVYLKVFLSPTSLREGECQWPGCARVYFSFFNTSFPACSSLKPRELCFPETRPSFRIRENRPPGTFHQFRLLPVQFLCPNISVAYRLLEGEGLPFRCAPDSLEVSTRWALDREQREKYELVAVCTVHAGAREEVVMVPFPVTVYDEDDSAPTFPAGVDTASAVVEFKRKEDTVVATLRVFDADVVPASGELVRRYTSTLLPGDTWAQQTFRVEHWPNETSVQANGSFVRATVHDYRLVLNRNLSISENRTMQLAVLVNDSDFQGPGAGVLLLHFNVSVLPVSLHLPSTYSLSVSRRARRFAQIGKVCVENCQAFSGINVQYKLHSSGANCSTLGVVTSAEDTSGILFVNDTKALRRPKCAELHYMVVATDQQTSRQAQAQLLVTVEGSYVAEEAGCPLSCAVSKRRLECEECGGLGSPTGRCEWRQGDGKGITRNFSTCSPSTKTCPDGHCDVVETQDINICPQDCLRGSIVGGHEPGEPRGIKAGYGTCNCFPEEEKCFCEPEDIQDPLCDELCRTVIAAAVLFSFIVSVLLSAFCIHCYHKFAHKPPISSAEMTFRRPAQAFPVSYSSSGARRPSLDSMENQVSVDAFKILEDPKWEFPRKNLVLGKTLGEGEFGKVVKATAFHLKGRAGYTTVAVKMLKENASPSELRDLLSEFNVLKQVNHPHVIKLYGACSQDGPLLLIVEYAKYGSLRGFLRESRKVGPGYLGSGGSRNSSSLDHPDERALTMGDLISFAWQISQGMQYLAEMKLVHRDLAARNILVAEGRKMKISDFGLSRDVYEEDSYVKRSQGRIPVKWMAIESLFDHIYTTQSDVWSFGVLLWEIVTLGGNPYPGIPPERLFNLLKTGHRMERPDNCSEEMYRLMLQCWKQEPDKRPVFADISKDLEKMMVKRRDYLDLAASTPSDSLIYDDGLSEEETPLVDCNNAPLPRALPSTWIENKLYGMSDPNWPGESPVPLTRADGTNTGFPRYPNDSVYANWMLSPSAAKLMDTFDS
T2 sequence (P16591 whole entry): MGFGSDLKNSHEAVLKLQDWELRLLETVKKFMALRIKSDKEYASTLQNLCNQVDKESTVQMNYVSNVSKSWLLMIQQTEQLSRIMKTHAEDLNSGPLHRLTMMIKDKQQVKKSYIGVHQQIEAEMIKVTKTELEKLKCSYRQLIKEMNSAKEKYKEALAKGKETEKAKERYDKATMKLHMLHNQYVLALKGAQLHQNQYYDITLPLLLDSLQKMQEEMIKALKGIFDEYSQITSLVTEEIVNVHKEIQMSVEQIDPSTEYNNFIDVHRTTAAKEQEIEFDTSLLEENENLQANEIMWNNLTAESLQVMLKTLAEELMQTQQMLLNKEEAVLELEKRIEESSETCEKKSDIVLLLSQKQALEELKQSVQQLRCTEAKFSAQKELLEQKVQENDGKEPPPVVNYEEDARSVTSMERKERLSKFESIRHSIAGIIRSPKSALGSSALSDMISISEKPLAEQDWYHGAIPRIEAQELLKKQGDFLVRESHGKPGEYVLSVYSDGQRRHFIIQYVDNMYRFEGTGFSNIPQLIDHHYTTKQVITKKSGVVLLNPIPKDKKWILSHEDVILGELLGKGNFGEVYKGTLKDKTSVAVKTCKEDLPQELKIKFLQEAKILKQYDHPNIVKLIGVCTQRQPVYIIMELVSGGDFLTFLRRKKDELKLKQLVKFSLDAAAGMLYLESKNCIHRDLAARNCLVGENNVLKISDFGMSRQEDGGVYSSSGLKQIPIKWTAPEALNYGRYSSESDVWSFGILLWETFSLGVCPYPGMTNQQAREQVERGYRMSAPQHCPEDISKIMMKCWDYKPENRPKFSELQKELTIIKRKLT
T4 sequence (Q7KZI7 whole entry): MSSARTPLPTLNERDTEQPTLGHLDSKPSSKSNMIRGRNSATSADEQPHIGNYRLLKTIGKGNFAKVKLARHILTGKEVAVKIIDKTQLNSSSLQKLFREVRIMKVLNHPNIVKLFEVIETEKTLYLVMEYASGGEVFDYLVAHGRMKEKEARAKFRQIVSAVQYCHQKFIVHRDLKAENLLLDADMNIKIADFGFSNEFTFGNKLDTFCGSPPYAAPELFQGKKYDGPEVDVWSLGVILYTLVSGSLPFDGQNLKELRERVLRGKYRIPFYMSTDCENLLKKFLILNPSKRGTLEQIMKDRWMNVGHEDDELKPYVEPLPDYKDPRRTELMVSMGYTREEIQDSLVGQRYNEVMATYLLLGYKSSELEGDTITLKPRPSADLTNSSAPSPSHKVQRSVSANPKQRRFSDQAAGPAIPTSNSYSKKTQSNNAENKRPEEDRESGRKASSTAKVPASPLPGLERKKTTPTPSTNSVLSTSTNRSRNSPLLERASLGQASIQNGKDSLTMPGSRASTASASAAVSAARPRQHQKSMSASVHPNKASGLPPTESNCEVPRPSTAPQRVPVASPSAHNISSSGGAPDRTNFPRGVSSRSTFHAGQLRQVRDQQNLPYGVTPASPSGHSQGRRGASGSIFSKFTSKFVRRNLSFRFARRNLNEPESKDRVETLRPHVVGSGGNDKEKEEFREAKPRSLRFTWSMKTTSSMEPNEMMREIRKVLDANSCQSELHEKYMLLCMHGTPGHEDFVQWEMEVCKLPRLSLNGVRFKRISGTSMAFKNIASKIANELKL
T7 sequence (Q15349 whole entry): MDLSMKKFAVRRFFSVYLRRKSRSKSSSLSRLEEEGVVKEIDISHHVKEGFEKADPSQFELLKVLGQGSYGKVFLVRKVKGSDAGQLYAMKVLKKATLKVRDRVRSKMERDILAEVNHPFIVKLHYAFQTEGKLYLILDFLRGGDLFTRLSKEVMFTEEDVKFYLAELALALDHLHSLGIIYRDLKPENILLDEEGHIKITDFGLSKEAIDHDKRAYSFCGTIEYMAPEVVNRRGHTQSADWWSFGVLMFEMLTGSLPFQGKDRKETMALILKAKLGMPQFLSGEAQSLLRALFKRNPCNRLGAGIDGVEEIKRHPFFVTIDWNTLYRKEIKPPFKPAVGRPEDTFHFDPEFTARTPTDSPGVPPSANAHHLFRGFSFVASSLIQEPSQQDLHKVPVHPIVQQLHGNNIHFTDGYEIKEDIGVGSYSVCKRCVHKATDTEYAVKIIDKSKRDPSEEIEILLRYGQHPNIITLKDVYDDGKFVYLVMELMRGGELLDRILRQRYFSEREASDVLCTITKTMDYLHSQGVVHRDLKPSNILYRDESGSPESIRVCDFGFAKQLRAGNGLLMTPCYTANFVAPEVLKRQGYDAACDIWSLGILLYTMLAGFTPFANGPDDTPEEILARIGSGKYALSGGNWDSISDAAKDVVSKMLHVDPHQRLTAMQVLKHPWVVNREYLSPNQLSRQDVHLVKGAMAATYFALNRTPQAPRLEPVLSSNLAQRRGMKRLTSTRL
T3 sequence (P09769 whole entry): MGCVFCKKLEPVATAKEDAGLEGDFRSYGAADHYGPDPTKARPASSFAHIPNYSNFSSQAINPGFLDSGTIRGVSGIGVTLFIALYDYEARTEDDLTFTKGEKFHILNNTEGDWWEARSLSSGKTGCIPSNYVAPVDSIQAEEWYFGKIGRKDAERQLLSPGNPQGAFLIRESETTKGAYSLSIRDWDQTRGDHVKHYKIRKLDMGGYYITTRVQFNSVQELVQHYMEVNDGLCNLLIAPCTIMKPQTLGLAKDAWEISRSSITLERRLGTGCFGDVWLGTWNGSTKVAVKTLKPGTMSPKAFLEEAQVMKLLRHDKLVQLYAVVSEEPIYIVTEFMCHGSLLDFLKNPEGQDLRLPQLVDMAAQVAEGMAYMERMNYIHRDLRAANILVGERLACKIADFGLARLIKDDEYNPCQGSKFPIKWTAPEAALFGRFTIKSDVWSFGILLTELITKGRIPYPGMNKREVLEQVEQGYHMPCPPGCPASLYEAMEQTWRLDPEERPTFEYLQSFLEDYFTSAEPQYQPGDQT

In the case of COc1ccc(OC(=O)n2c(=O)oc3cc(C(C)=O)ccc32)cc1 [Compound 2], the “inhibition of O-GlcNAcylation in cells” value (MCF-10A ErbB2 cells) is reported as “inhibits global O-GlcNAcylation in cells”, the “% Inhibition Point 1” value (EEF2K) is reported as −64% and the “% Inhibition Point 2” value (EEF2K) is reported as −61%. The “% Inhibition mean” value (EEF2K) was −63%, the “% Inhibition Point 1” value (FER) was −261% and the “% Inhibition Point 2” value (FER) was −240%. The “% Inhibition mean” value (FER) was −251%, the “% Inhibition Point 1” value (FGR) was 21% and the “% Inhibition Point 2” value (FGR) was 21%. The “% Inhibition mean” value (FGR) was 21%, the “% Inhibition Point 1” value (MARK2) was −172% and the “% Inhibition Point 2” value (MARK2) was −157%. For the same molecule, the “% Inhibition mean” value (MARK2) was −164%, the “% Inhibition Point 1” value (PHKG2) was −360% and the “% Inhibition Point 2” value (PHKG2) was −308%. For the same molecule, the “% Inhibition mean” value (PHKG2) was −334%, the “% Inhibition Point 1” value (RET) was −91% and the “% Inhibition Point 2” value (RET) was −70%. For the same molecule, the “% Inhibition mean” value (RET) was −80%, the “% Inhibition Point 1” value (RPS6KA2 (RSK3)) was −266% and the “% Inhibition Point 2” value (RPS6KA2 (RSK3)) was −267%. For the same molecule, the “% Inhibition mean” value (RPS6KA2 (RSK3)) was −267%.
